Experimental data taken from patent US8012987B2, “Indolo[2,1-b] quinazole-6,12-dione antimalarial compounds and methods of treating malaria therewith” (The United States of America as represented by the …, priority 1998, dated 2011).
Converted amounts (≈) assume the structure as drawn. Like-named read-outs stand apart in the source and are kept apart here.

Key:
[1] = test system: Plasmodium falciparum clone CDC Indochina III (W-2); assay: In vitro inhibition of [3H]hypoxanthine uptake, P. falciparum W-2 clone; format: cell-based; settings: Plasmodium falciparum, read-out: IC50 (W-2)
Protocol: (§1) The in vitro assays were conducted by using a modification of the semiautomated microdilution technique of Desjardins et al.^11 and Chulay et al.^12 Two strains of Plasmodium falciparum clones, from CDC Indochina III (W-2), CDC Sierra Leone I (D-6). […] These solutions were subsequently serially diluted 2-fold with a Biomek 1000® (Beckman, Fullerton, Calif.) over 11 different concentrations. The parasites were exposed to serial dilutions of each compound for 48 h and incubated at 37° C. with 5% O2, 5% CO2, and 90% N2 prior to the addition of [^3H]hypoxanthine. […] Uptake of [^3H]hypoxanthine was measured with a Packard Topcount scintillation counter. […] The values without parentheses indicate culture in blood serum which more closely resemble conditions in a living animal.
(§2) The numbers associated with both W2 and D6 refer to IC50 values and the units are ng/ml.

[2] = test system: Plasmodium falciparum clone CDC Sierra Leone I (D-6); assay: In vitro inhibition of [3H]hypoxanthine uptake, P. falciparum D-6 clone; format: cell-based; settings: Plasmodium falciparum, read-out: IC50 (D-6)
Protocol: as §1, §2

[3] = values in parentheses: culture medium with 10% Albumax I

Structure (SMILES): CCCCCCCCc1ccc2c(c1)C(=O)c1nc3ccncc3c(=O)n1-2 [Example 41]
- IC50 [1, 3]: 0.00766 µg/mL (≈ 0.0212 µM)
- IC50 [2, 3]: 0.0123 µg/mL (≈ 0.0341 µM)

Structure (SMILES): O=C1c2cc(Cl)ccc2-n2c1nc1ccc(I)cc1c2=O [Example 42]
- IC50 [1, 3]: 0.0632 µg/mL (≈ 0.155 µM)
- IC50 [2, 3]: 0.0764 µg/mL (≈ 0.187 µM)

Structure (SMILES): O=C(N/N=C1\c2ccccc2-n2c1nc1ccccc1c2=O)c1ccncc1 [Example 43]
- IC50 [1, 3]: 23 µg/mL (≈ 62.6 µM)
- IC50 [2, 3]: 38.2 µg/mL (≈ 104 µM)

Structure (SMILES): CCCCCCCCc1ccc2nc3n(c(=O)c2c1)-c1ccc(Cl)cc1C3=O [Example 44]
- IC50 [1, 3]: 5.86 µg/mL (≈ 14.8 µM)
- IC50 [2, 3]: 6.92 µg/mL (≈ 17.5 µM)

Structure (SMILES): CCN(CCN(C)C)c1ccc2c(=O)n3c(nc2c1)C(=O)c1cc(Cl)ccc1-3 [Example 49]
- IC50 [1, 3]: 0.0747 µg/mL (≈ 0.188 µM)
- IC50 [2, 3]: 0.0739 µg/mL (≈ 0.186 µM)

Structure (SMILES): O=C1c2cc(Cl)ccc2-n2c1nc1ncncc1c2=O [Example 50]
- IC50 [1, 3]: 0.0112 µg/mL (≈ 0.0392 µM)
- IC50 [2, 3]: 0.0442 µg/mL (≈ 0.155 µM)

Structure (SMILES): O=C1/C(=c2\c3ccccc3n3c(=O)c4ccccc4nc23)Nc2ccccc21 [Example 51]
- IC50 [1]: 8.76 µg/mL (≈ 24.1 µM)
- IC50 [2]: 8.69 µg/mL (≈ 23.9 µM)

Structure (SMILES): O=C1c2ccccc2-n2c1nc1ccncc1c2=O [Example 52]
- IC50 [1, 3]: 0.0647 µg/mL (≈ 0.26 µM)
- IC50 [2, 3]: 0.0733 µg/mL (≈ 0.294 µM)

Structure (SMILES): CCOC(=O)c1nc2ccccc2c(=O)n1-c1ccccc1 [Example 53]
- IC50 [1, 3]: 4.87 µg/mL (≈ 16.6 µM)
- IC50 [2, 3]: 9.01 µg/mL (≈ 30.6 µM)

Structure (SMILES): Cc1ncc2c(=O)n3c(nc2n1)C(=O)c1cc(I)ccc1-3 [Example 54]
- IC50 [1, 3]: 0.124 µg/mL (≈ 0.318 µM)
- IC50 [2, 3]: 0.0746 µg/mL (≈ 0.191 µM)

Structure (SMILES): Cc1ncc2c(=O)n3c(nc2n1)C(=O)c1ccccc1-3 [Example 56]
- IC50 [1, 3]: 0.117 µg/mL (≈ 0.443 µM)
- IC50 [2, 3]: 0.216 µg/mL (≈ 0.817 µM)

Structure (SMILES): CN(CC(=O)O)c1ccc2c(=O)n3c(nc2c1)C(=O)c1cc(Cl)ccc1-3 [Example 60]
- IC50 [1, 3]: 0.0679 µg/mL (≈ 0.184 µM)
- IC50 [2, 3]: 0.0781 µg/mL (≈ 0.211 µM)

Structure (SMILES): CN(CCOC(=O)CCC(=O)O)c1ccc2c(=O)n3c(nc2c1)C(=O)c1cc(Cl)ccc1-3 [Example 61]
- IC50 [1, 3]: 0.187 µg/mL (≈ 0.41 µM)
- IC50 [2, 3]: 0.247 µg/mL (≈ 0.542 µM)

Structure (SMILES): COCc1ccc2c(c1)C(=O)c1nc3ccncc3c(=O)n1-2 [Example 62]
- IC50 [1, 3]: 0.016 µg/mL (≈ 0.0546 µM)
- IC50 [2, 3]: 0.0313 µg/mL (≈ 0.107 µM)

Structure (SMILES): CCOC(=O)C(O)(C(=O)OCC)C1c2ccccc2-n2c1nc1ccccc1c2=O (stereo not drawn) [Example 65]
- IC50 [1, 3]: 0.154 µg/mL (≈ 0.377 µM)
- IC50 [2, 3]: 0.259 µg/mL (≈ 0.634 µM)

Structure (SMILES): CN1CCN(/N=C\c2ccc3c(c2)C(=O)c2nc4ccncc4c(=O)n2-3)CC1 [Example 66]
- IC50 [1, 3]: 0.449 µg/mL (≈ 1.2 µM)
- IC50 [2, 3]: 0.517 µg/mL (≈ 1.38 µM)

Structure (SMILES): O=c1c2ccccc2nc2/c(=C/C=C/c3ccccc3)c3ccccc3n12 [Example 67]
- IC50 [1, 3]: 4.42 µg/mL (≈ 12.7 µM)
- IC50 [2, 3]: 4.44 µg/mL (≈ 12.7 µM)

Structure (SMILES): CCCCCCC(C)c1ccc2c(c1)C(=O)c1nc3ccncc3c(=O)n1-2 (stereo not drawn) [Example 71]
- IC50 [1, 3]: 0.12 µg/mL (≈ 0.332 µM)
- IC50 [2, 3]: 0.143 µg/mL (≈ 0.397 µM)

Structure (SMILES): CCCCCCCCc1ccc2c(c1)C(=O)c1nc3cc(N(C)CCO)ccc3c(=O)n1-2 [Example 72]
- IC50 [1, 3]: 7.46 µg/mL (≈ 17.2 µM)
- IC50 [2, 3]: 7.86 µg/mL (≈ 18.1 µM)

Structure (SMILES): COc1cccc2c(=O)n3c(nc12)/c(=C/c1ccccc1)c1cc(F)ccc13 [Example 75]
- IC50 [1, 3]: 0.573 µg/mL (≈ 1.55 µM)
- IC50 [2, 3]: 0.534 µg/mL (≈ 1.44 µM)

Structure (SMILES): CCOC(=O)C(O)(C(=O)OCC)C1c2cc(F)ccc2-n2c1nc1c(OC)cccc1c2=O (stereo not drawn) [Example 76]
- IC50 [1, 3]: 0.16 µg/mL (≈ 0.35 µM)
- IC50 [2, 3]: 0.224 µg/mL (≈ 0.49 µM)

Structure (SMILES): O=C1c2cc(C3OCCCO3)ccc2-n2c1nc1ccncc1c2=O [Example 77]
- IC50 [1, 3]: 0.165 µg/mL (≈ 0.493 µM)
- IC50 [2, 3]: 0.22 µg/mL (≈ 0.657 µM)

Structure (SMILES): CN(CCO)c1ccc2c(=O)n3c(nc2c1)C(=O)c1cc(OC(F)(F)F)ccc1-3 [Example 79]
- IC50 [1, 3]: 0.0688 µg/mL (≈ 0.17 µM)
- IC50 [2, 3]: 0.07 µg/mL (≈ 0.173 µM)

Structure (SMILES): O=c1c2ccccc2nc2n1-c1ccccc1C21OCCO1 [Example 80]
- IC50 [1, 3]: 6.9 µg/mL (≈ 23.6 µM)
- IC50 [2, 3]: 7.97 µg/mL (≈ 27.3 µM)

Structure (SMILES): CC1(C)COC(c2ccc3c(c2)C(=O)c2nc4ccncc4c(=O)n2-3)OC1 [Example 81]
- IC50 [1, 3]: 0.0739 µg/mL (≈ 0.203 µM)
- IC50 [2, 3]: 0.11 µg/mL (≈ 0.303 µM)

Structure (SMILES): Cc1ccc2c(c1)C(=O)c1nc3ccncc3c(=O)n1-2 [Example 82]
- IC50 [1, 3]: 0.124 µg/mL (≈ 0.471 µM)
- IC50 [2, 3]: 0.0628 µg/mL (≈ 0.239 µM)

Structure (SMILES): O=C1c2cc(C(O)(C(F)(F)F)C(F)(F)F)ccc2-n2c1nc1ccncc1c2=O [Example 84]
- IC50 [1, 3]: 0.938 µg/mL (≈ 2.26 µM)
- IC50 [2, 3]: 1.71 µg/mL (≈ 4.12 µM)

Structure (SMILES): COCCOC(c1ccc2c(c1)C(=O)c1nc3ccncc3c(=O)n1-2)C(C)C (stereo not drawn) [Example 85]
- IC50 [1, 3]: 0.105 µg/mL (≈ 0.278 µM)
- IC50 [2, 3]: 0.136 µg/mL (≈ 0.358 µM)

Structure (SMILES): O=C(N/N=C\c1ccc2c(c1)C(=O)c1nc3ccncc3c(=O)n1-2)c1ccncc1 [Example 88]
- IC50 [1, 3]: 0.177 µg/mL (≈ 0.448 µM)
- IC50 [2, 3]: 0.49 µg/mL (≈ 1.24 µM)

Structure (SMILES): O=C1c2cc(/C=N/N3CCCCC3)ccc2-n2c1nc1ccncc1c2=O [Example 89]
- IC50 [1, 3]: 0.0688 µg/mL (≈ 0.191 µM)
- IC50 [2, 3]: 0.112 µg/mL (≈ 0.311 µM)
